# Data taken from ChEMBL document CHEMBL1155739, “New indole alkaloids from the bark of Nauclea orientalis” (J Nat Prod, 2001).
# Calls of active or inactive are those of the source. No cut-off for these calls is given here.
# Experiments:
# Candida albicans = assay: (§1) Inhibition of Candida albicans secreted aspartic protease
# [1] = as §1
Activity (Candida albicans),IC50 [1] [ng/mL],SMILES
inactive,–,C=C[C@@H]1C2=C[C@H]3c4[nH]c5ccccc5c4CCN3C(=O)C2=C(O)O[C@H]1O[C@@H]1O[C@H](CO)[C@@H](O)[C@H](O)[C@H]1O
–,6,CC(C)CC(=O)N[C@H](C(=O)N[C@H](C(=O)N[C@@H](CC(C)C)[C@@H](O)CC(=O)N[C@@H](C)C(=O)N[C@@H](CC(C)C)[C@@H](O)CC(=O)O)C(C)C)C(C)C [PEPSTATIN]
